# Patent publication US20260137697A1, “THIAZOLO[5,4-D]PYRIMIDINE COMPOUNDS, COMPOSITIONS COMPRISING THEM AND USES THEREOF” (University de Montreal, priority 2022, published 2026)
# pIC50: −log10 of the molar value.
# Experiments:
# ARAF = target: T1, ARAF (Homo sapiens, UniProt P10398); test: ARAF kinase activity assay (AlphaLISA p-MEK 1/2); format: biochemical; conditions: Table A; 10 μM ATP, kinase-dead MEK1 substrate
# T1 construct: ARAF kinase reactions were rigorously the same with the exception that kinase concentration was raised to 3.75 nM (cat. No. 1768-0000-1; Reaction Biology)
# T1 sequence (P10398 303-606 limits assumed): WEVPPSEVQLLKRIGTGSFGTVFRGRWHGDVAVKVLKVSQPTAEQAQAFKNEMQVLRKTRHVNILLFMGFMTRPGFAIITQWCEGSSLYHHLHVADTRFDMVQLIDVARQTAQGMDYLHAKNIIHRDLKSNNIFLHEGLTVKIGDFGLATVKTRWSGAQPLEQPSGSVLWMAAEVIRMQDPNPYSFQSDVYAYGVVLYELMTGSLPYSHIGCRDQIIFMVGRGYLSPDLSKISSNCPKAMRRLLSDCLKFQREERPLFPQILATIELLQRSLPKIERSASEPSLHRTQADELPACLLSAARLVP
# Experimental: Compound preparation: solid samples of each substance in 1dram vials were suspended in DMSO (Fisher Scientific) at a stock concentration of 20 mM. Stocks were kept at −20° C. and protected from light. If solubility of the compound at 20 mM appeared to be an issue, the initial concentration of the DMSO stock was changed to 10 mM or 5 mM.
# In vitro enzymatic reactions were used for evaluating compounds intrinsic activity against BRAF, CRAF and ARAF. For BRAF and CRAF, 0.375 nM of purified GST-tagged kinases (cat. No. B4062-10UG and cat. No. R1656-10UG respectively from Millipore Sigma) were incubated with 75 nM of kinase-dead MEK1 substrate (cat. No. 40075; BPS Bioscience) in the presence of 10 μM of Ultrapure ATP (cat. No. V9102; Promega; part V915A) with and without the test compound in a buffer containing 50 mM HEPES pH 7.5, 10 mM MgCl2, 1 mM EDTA, 0.01% Brij-35 and 2 mM DTT. Separate reactions were performed with the MEK1 substrate and ATP as a blank control. ARAF kinase reactions were rigorously the same with the exception that kinase concentration was raised to 3.75 nM (cat. No. 1768-0000-1; Reaction Biology).
# For compound treatment, 5 μL/well of test substance solution are placed in a 384-well proxyplate (Perkin Elmer) and mixed with 2× concentrated kinase reactions. The dilution series is selected so that nine concentrations cover a range from 100 nM to 0.01 nM. […] The final concentration of DMSO in the assay is set at 0.05%.
# ARAF kinase reactions were carried out for a total of 2 hours at 30° C. and then stopped by addition of EDTA at a final concentration of 40 mM. Reactions were then detected using the AlphaLISA® SureFire® Ultra™ p-MEK 1/2 (Ser218/222) (PerkinElmer) kit. Reactions were performed with 5 μL of kinase reaction according to the manufacturer's specifications in 384-well proxyplates (Perkin Elmer) followed by overnight incubation of the AlphaLISA® reactions at room temperature in a humidified chamber. After completion of the detection reactions, the signals were recorded on a Synergy Neo2 plate reader (Biotek) equipped with AlphaLISA® filters. The effect of each compound dilution on the pMEK signal generated by ARAF reactions was expressed in % inhibition and calculated as follows. An internal 100% inhibition control (average of luminescence in kinase reactions comprising kinase dead MEK1 substrate alone) was included in each plate to measure of pMEK background and was subtracted from each data point. The average of DMSO (vehicle) controls (set as 0% inhibition) was also established and used to calculate % inhibition:
# IC50 values were obtained by plotting the kinase inhibition values and fitting the dose-activity curves using a log(agonist) versus response—variable slope (four parameters) function using either GraphPadPrism (V7.0) or Dotmatics Screening Ultra platform. Standards included in the ARAF kinase assay were Belvarafenib (MedChem Express cat. No. HY-109080; CAS No. 1446113-23-0), LXH254 (MedChem Express cat. No. HY-112089; CAS No. 1800398-38-2) and BGB283 (cat. No. HY-18957; CAS No. 1446090-79-4).
# CRAF = target: T2, CRAF (Homo sapiens, UniProt P04049); test: CRAF kinase activity assay (ADP-Glo); format: biochemical; conditions: 10 μM ATP, kinase-dead MEK1 substrate
# T2 construct: fused on or other part: GST tag (N-terminal according to the vendor's product)
# How it was run: (§1)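 ADP-Glo luminescence read after 2 h reactions at 30° C containing 0.375 nM GST-kinase, kinase-dead MEK1 (75 nM), ATP at 10 μM, pH 7.5 HEPES/MgCl2/DTT, 0.05% DMSO. Compounds dosed from 100 to 0.01 nM (nine points); IC50 from variable-slope fit of % inhibition.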
# pERK, HCT116 cells = test: Phospho-ERK inhibition, AlphaLISA p-ERK 1/2, HCT-116; format: cell-based, human; conditions: for pIC50: HCT116 cells (KRAS G13D), 1 h treatment; for HCT116 pERK (Ymin %): lowest % inhibition value of the pERK IC50 curve, above −20% = no paradoxical induction
# How it was run: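 Cells in RPMI-1640 with 5% FBS plated overnight, then treated 1 h with ten-point dilutions (10 μM to 0.33 nM, 0.5% DMSO). Lysate p-ERK1/2 (Thr202/Tyr204) read by AlphaLISA SureFire Ultra; % inhibition normalised to DMSO and 1 μM trametinib background, IC50 by four-parameter fit.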
# BRAF = target: T3, BRAF (Homo sapiens, UniProt P15056); test: BRAF kinase activity assay (ADP-Glo); format: biochemical; conditions: 10 μM ATP, kinase-dead MEK1 substrate
# T3 construct: GST; purchased Millipore Sigma B4062-10UG
# How it was run: as §1
# T3 sequence (P15056 whole entry): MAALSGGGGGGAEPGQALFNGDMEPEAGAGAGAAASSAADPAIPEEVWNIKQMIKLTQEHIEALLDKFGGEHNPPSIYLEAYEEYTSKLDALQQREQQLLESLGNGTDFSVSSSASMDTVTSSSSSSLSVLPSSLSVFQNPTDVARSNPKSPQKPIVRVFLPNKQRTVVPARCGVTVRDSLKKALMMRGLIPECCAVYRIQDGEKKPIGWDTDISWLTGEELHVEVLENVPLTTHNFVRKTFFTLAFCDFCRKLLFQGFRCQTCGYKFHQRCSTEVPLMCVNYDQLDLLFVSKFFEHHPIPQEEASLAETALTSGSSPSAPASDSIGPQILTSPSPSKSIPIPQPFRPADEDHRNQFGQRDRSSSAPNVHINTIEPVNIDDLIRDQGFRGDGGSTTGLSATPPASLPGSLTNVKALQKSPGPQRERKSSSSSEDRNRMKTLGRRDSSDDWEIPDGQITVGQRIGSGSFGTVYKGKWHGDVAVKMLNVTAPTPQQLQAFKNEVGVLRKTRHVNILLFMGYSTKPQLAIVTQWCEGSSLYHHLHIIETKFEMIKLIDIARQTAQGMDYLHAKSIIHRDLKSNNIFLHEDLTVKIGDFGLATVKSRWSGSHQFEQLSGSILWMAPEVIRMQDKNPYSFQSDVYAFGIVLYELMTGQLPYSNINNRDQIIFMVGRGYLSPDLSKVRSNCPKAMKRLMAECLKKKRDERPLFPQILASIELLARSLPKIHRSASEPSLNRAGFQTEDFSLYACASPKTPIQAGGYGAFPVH
# T2 sequence (P04049 whole entry Y340E/Y341E, form open, the tested form may be a part): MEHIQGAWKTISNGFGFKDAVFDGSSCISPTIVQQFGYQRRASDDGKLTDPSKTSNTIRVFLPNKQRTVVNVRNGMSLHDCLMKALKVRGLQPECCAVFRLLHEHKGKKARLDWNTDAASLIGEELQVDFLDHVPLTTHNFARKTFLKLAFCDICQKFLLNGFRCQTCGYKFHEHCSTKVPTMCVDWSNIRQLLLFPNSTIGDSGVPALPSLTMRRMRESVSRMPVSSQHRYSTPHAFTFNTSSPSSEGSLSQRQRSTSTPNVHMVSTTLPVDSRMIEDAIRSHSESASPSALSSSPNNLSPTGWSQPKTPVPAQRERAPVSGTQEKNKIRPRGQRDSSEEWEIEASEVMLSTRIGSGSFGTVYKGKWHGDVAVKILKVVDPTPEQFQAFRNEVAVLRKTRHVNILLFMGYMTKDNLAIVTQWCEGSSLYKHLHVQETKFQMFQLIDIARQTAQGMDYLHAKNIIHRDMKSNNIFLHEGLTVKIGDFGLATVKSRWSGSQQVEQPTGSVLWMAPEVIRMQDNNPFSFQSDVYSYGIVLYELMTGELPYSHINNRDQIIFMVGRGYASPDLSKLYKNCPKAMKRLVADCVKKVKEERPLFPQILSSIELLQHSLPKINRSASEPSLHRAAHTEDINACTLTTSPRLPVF
IC50 (ARAF) [nM],pIC50 (CRAF; Table 3),"pIC50 (pERK, HCT116 cells; Table 3)",pIC50 (BRAF; Table 3),"pIC50 (pERK, HCT116 cells; Homo sapiens, HCT-116, Table 3)",pIC50 (CRAF; Table 4),"pIC50 (pERK, HCT116 cells; Homo sapiens, HCT-116, Table 4)",pIC50 (BRAF; Table 4),SMILES,"HCT116 pERK (Ymin %) (pERK, HCT116 cells; Table 3) [%]"
> 10,,,,,,,,O=C1CCc2c(Oc3ccc4c(c3)[C@@H]3[C@H](O4)[C@H]3c3nc4ccc(C(F)(F)F)cc4[nH]3)ccnc2N1 [BGB283],
,7.30 to 8.00,> 6.30,8.00 to 9.00,,,,,N#CC1CCN(c2cccc3c2ncn3-c2nc3c(Nc4c(F)ccc(NS(=O)(=O)c5cccc(Cl)c5Cl)c4F)ncnc3s2)CC1 [Example 140],−10
,> 8.00,> 6.30,> 9.00,,,,,O=S(=O)(Nc1ccc(F)c(Nc2ncnc3sc(-n4cnc5c(N6CCOC(CO)C6)cccc54)nc23)c1F)c1cccc(Cl)c1Cl (stereo not shown) [Example 141],2
,7.30 to 8.00,> 6.30,8.00 to 9.00,,,,,O=S(=O)(Nc1ccc(F)c(Nc2ncnc3sc(-n4cnc5c(N6CCC(F)(CO)CC6)cccc54)nc23)c1F)c1cccc(Cl)c1Cl [Example 142],0
,> 8.00,> 6.30,8.00 to 9.00,,,,,O=S(=O)(Nc1ccc(F)c(Nc2ncnc3sc(-n4cnc5c(C6(CO)CC6)cccc54)nc23)c1F)c1cccc(Cl)c1Cl [Example 143],−8
,> 8.00,> 6.30,8.00 to 9.00,,,,,O=S(=O)(Nc1ccc(F)c(Nc2ncnc3sc(-n4cnc5c(N6CCC(O)CC6)cccc54)nc23)c1F)c1cccc(Cl)c1Cl [Example 144],−4
,< 7.30,> 6.30,8.00 to 9.00,,,,,CC1(C#N)CCN(c2cccc3c2ncn3-c2nc3c(Nc4c(F)ccc(NS(=O)(=O)c5cccc(Cl)c5Cl)c4F)ncnc3s2)CC1 [Example 145],−13
,< 7.30,> 6.30,< 8.00,,,,,O=S(=O)(Nc1ccc(F)c(Nc2ncnc3sc(-n4cnc5c(N6CCC7(CCOC7)CC6)cccc54)nc23)c1F)c1cccc(Cl)c1Cl [Example 146],−12
,7.30 to 8.00,> 6.30,> 9.00,,,,,O=S(=O)(Nc1ccc(F)c(Nc2ncnc3sc(-n4cnc5c(N6CCC[C@H](O)C6)cccc54)nc23)c1F)c1cccc(Cl)c1Cl [Example 147],−4
,7.30 to 8.00,> 6.30,8.00 to 9.00,,,,,O=S(=O)(Nc1ccc(F)c(Nc2ncnc3sc(-n4cnc5c(N6CCC[C@@H](O)C6)cccc54)nc23)c1F)c1cccc(Cl)c1Cl [Example 148],−2
,7.30 to 8.00,> 6.30,8.00 to 9.00,,,,,CCC1(O)CCN(c2cccc3c2ncn3-c2nc3c(Nc4c(F)ccc(NS(=O)(=O)c5cccc(Cl)c5Cl)c4F)ncnc3s2)CC1 [Example 149],16
,7.30 to 8.00,5.00 to 6.00,< 8.00,,,,,CC1(O)CCCN(c2cccc3c2ncn3-c2nc3c(Nc4c(F)ccc(NS(=O)(=O)c5cccc(Cl)c5Cl)c4F)ncnc3s2)CC1 (stereo not shown) [Example 150],−5
,7.30 to 8.00,> 6.30,8.00 to 9.00,,,,,O=C1CCCC12CCN(c1cccc3c1ncn3-c1nc3c(Nc4c(F)ccc(NS(=O)(=O)c5cccc(Cl)c5Cl)c4F)ncnc3s1)CC2 [Example 151],−2
,> 8.00,> 6.30,> 9.00,,,,,O=S(=O)(Nc1ccc(F)c(Nc2ncnc3sc(-n4cnc5c(N6CCN(CCO)CC6)cccc54)nc23)c1F)c1cccc(Cl)c1Cl [Example 152],0
,> 8.00,> 6.30,8.00 to 9.00,,,,,CS(=O)(=O)C1CCN(c2cccc3c2ncn3-c2nc3c(Nc4c(F)ccc(NS(=O)(=O)c5cccc(Cl)c5Cl)c4F)ncnc3s2)CC1 [Example 153],−5
,< 7.30,,< 8.00,5.00 to 6.00,,,,"Cc1c(F)cccc1S(=O)(=O)Nc1ccc(F)c(Nc2ncnc3sc(-c4cncs4)nc23)c1F [Example 154, N-[2,4-difluoro-3-[(2-thiazol-5-ylthiazolo[5,4-d]pyrimidin-7-yl)amino]phenyl]-3-fluoro-2-methyl-benzenesulfonamide]",
,7.30 to 8.00,> 6.30,8.00 to 9.00,,,,,CS(=O)(=O)N1CCN(c2cccc3c2ncn3-c2nc3c(Nc4c(F)ccc(NS(=O)(=O)c5cccc(Cl)c5Cl)c4F)ncnc3s2)CC1 [Example 155],−12
,> 8.00,,> 9.00,> 6.30,,,,"O=S(=O)(Nc1ccc(F)c(Nc2ncnc3sc(-n4cnc5c(N6CCNCC6)cccc54)nc23)c1F)c1cccc(Cl)c1Cl [Example 156, 2,3-dichloro-N-[2,4-difluoro-3-[[2-(4-piperazin-1-ylbenzimidazol-1-yl)thiazolo[5,4-d]pyrimidin-7-yl]amino]phenyl]benzenesulfonamide]",
,> 8.00,> 6.30,> 9.00,,,,,CC1(N)CCN(c2cccc3c2ncn3-c2nc3c(Nc4c(F)ccc(NS(=O)(=O)c5cccc(Cl)c5Cl)c4F)ncnc3s2)CC1 [Example 157],−14
,> 8.00,> 6.30,> 9.00,,,,,O=S1(=O)CCN(c2cccc3c2ncn3-c2nc3c(Nc4c(F)ccc(NS(=O)(=O)c5cccc(Cl)c5Cl)c4F)ncnc3s2)CC1 [Example 158],4
,,,,,> 8.00,> 6.30,8.00 to 9.00,"O=S(=O)(Nc1cc(F)c(F)c(Nc2ncnc3sc(-n4cnc5ccccc54)nc23)c1F)c1cccc(Cl)c1Cl [Example 159, N-[3-[[2-(benzimidazol-1-yl)thiazolo[5,4-d]pyrimidin-7-yl]amino]-2,4,5-trifluoro-phenyl]-2,3-dichloro-benzenesulfonamide]",
> 10,,,,,,,,Cc1ccc(NC(=O)c2ccnc(C(F)(F)F)c2)cc1-c1cc(OCCO)nc(N2CCOCC2)c1 [LXH254],
